Target: STAT6 (Homo sapiens (Human), UniProt P42226)
Assay: STAT6 degrader assay (HiBiT, HeLa LgBiT clone 4.14)
Format: cell-based
Details: HeLa LgBiT clone 4.14, 4-24 h; for DC50: geometric mean, given for compounds with >80% Emax, read-out: STAT6 degradation DC50; for Emax: read-out: STAT6 degradation Emax (%)
Procedure: This was a HiBit based assay. A HeLa cell line stably transfected with a small protein, LgBit (Large Bit) was obtained from Promega. These cells express endogenous STAT6. A small 11 amino acid gene sequence (HiBiT) was inserted in the STAT6 gene using CRISPR technology. Once STAT6 protein is expressed in the cells, the HiBiT sequence will bind the LgBit in the cells resulting in a functional NanoBiT protein, giving a luminescent tag to STAT6, see FIG. 2.
Single cell clones were prepared and the clone 4.14 was selected for the assay based on that clone showing high luminescence, high STAT6 phosphorylation upon stimulation with IL-4, and inhibition of luminescence when cells were treated with STAT6 siRNA.
HeLa LgBiT clone 4.14 cells were suspended in DMEM with 10% FCS, 1% Pen/Strep, Na-pyrovate and Hygromycin B, at a concentration of 1.25*105 cells pr mL. 5000 cells were added pr well of a 384 well plate and 20 nL of compound was added by Echo® liquid handler. NN6394A (terfenadine, a toxic compound) was added to control wells at 50 μM concentration to establish the assay window. In these wells the cells are dead which equals 100% degradation of STAT6.
After 4-24 h of incubation at 37° C. under 5% CO2/95% air, 5 μL substrate (Nano-GLO®) was added to the wells and the plates were centrifuged and incubated for 0.5 h.
The luminescence in the wells as a measure of non-degraded STAT6 was measured in a plate reader (BMG Pherastar FSX). The measured DC50 (in nM) was determined.
The dose-response curves Examples 3p1, 3e50, 3e17, and 3e51 are shown below (where percent degradation is plotted vs. test compound concentration in M on a log-scale).

Sequence of STAT6 (P42226 whole entry): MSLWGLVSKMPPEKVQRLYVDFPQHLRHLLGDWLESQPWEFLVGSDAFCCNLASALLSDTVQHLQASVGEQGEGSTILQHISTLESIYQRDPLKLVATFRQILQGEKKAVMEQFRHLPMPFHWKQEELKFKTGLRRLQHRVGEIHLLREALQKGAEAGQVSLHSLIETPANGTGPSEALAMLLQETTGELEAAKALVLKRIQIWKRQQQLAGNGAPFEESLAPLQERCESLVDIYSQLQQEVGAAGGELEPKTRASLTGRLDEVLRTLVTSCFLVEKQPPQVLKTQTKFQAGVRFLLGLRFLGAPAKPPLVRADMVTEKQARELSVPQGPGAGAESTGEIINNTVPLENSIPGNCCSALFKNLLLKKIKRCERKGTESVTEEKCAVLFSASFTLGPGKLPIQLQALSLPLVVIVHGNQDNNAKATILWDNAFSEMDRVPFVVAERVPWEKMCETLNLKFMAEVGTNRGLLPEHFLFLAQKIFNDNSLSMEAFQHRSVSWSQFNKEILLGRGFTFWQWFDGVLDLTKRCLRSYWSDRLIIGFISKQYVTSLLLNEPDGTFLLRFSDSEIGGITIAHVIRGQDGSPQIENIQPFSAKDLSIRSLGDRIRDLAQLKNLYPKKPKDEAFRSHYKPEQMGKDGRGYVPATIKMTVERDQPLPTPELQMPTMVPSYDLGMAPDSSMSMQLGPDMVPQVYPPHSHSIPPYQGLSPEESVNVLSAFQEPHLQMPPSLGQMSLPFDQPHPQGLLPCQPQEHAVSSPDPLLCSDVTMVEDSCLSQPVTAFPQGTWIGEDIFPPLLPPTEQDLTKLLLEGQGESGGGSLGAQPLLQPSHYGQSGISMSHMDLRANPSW

Row | Molecule | DC50 | other results
1 | 3-(4-((4-((1-(4-(1-((4-(1H-indazol-5-yl)-1-methyl-1H-pyrrolo[2,3-b]pyridin-2-yl)methyl)-piperidin-4-yl)benzoyl)piperidin-4-yl)methyl)piperidin-1-yl)methyl)-3-(2-methoxyethyl)-2-oxo-2,3-dihydro-1H-benzo[d]imidazol-1-yl)piperidine-2,6-dione [Example 3i2] |  | STAT6 degradation Emax (%): 40-50%
2 | CNc1ccc(-c2ccnc3c2cc([C@H](C)N2CCC(c4ccc(C(=O)N5CCC(CN6CCN(Cc7ccc8c(c7)n(C)c(=O)n8[C@@H]7CCC(=O)NC7=O)C[C@@H]6C)CC5)cc4)CC2)n3C)cn1 (single isomer, unassigned) [Example 3h3] | 1.1 nM | 
3 | Cc1cc(C(=O)N2CCC(CN3CCN(Cc4ccc5c(c4)n(C4CC4)c(=O)n5[C@H]4CCC(=O)NC4=O)C[C@@H]3C)CC2)cc(F)c1C1=CCN([C@@H](C)c2cc3c(-c4ccc(N)nc4)ccnc3n2C)CC1 (single isomer, unassigned) [Example 3h16] | 1.6 nM | 
4 | Cc1cc(C(=O)N2CCC(CN3CCN(Cc4ccc5c(c4)n(C4CC4)c(=O)n5[C@@H]4CCC(=O)NC4=O)C[C@@H]3C)CC2)cc(F)c1C1=CCN([C@@H](C)c2cc3c(-c4ccc(N)nc4)ccnc3n2C)CC1 (single isomer, unassigned) [Example 3h17] | 0.8 nM | 
5 | Cn1c(CN2CCC(c3ccc(C(=O)N4CCC(OCC#Cc5cccc6c5n(C)c(=O)n6C5CCC(=O)NC5=O)CC4)cc3)CC2)cc2c(-c3ccc4[nH]ncc4c3)ccnc21 (stereo not shown) [Example 3a1, 3-(4-(3-((1-(4-(1-((4-(1H-indazol-5-yl)-1-methyl-1H-pyrrolo[2,3-b]pyridin-2-yl)methyl)piperidin-4-yl)benzoyl)piperidin-4-yl)oxy)prop-1-yn-1-yl)-3-methyl-2-oxo-2,3-dihydro-1H-benzo[d]imidazol-1-yl)piperidine-2,6-dione] | 4.9 nM | 
6 | Cn1c(CN2CCC(c3ccc(C(=O)N4CCC(OCC#Cc5ccc6c(c5)n(C)c(=O)n6C5CCC(=O)NC5=O)CC4)cc3)CC2)cc2c(-c3ccc4[nH]ncc4c3)ccnc21 (stereo not shown) [Example 3b1, 3-(5-(3-((1-(4-(1-((4-(1H-indazol-5-yl)-1-methyl-1H-pyrrolo[2,3-b]pyridin-2-yl)methyl)piperidin-4-yl)benzoyl)piperidin-4-yl)oxy)prop-1-yn-1-yl)-3-methyl-2-oxo-2,3-dihydro-1H-benzo[d]imidazol-1-yl)piperidine-2,6-dione] | 2.4 nM | 
7 | Cn1c(CN2CCC(c3ccc(C(=O)N4CCC(CN5CCC(c6ccc7c(c6)n(C)c(=O)n7C6CCC(=O)NC6=O)CC5)CC4)cc3)CC2)cc2c(-c3ccc4[nH]ncc4c3)ccnc21 (stereo not shown) [Example 3d1, 3-(5-(1-((1-(4-(1-((4-(1H-indazol-5-yl)-1-methyl-1H-pyrrolo[2,3-b]pyridin-2-yl)methyl)piperidin-4-yl)benzoyl)piperidin-4-yl)methyl)piperidin-4-yl)-3-methyl-2-oxo-2,3-dihydro-1H-benzo[d]imidazol-1-yl)piperidine-2,6-dione] |  | Emax: 50 to 60%
8 | Cn1c(CN2CCC(c3ccc(C(=O)N4CCC(CN5CCN(Cc6ccc7c(c6)n(C)c(=O)n7C6CCC(=O)NC6=O)CC5)CC4)cc3)CC2)cc2c(-c3ccc4[nH]ncc4c3)ccnc21 (stereo not shown) [Example 3e1, 3-(5-((4-((1-(4-(1-((4-(1H-indazol-5-yl)-1-methyl-1H-pyrrolo[2,3-b]pyridin-2-yl)methyl)piperidin-4-yl)benzoyl)piperidin-4-yl)methyl)piperazin-1-yl)methyl)-3-methyl-2-oxo-2,3-dihydro-1H-benzo[d]imidazol-1-yl)piperidine-2,6-dione] | 0.6 nM | 
9 | Cn1c(CN2CCC(c3ccc(C(=O)N4CCC(CN5CCN(Cc6ccc7c(c6)n(C6CC6)c(=O)n7C6CCC(=O)NC6=O)CC5)CC4)cc3)CC2)cc2c(-c3ccc4[nH]ncc4c3)ccnc21 (stereo not shown) [Example 3e6, 3-(5-((4-((1-(4-(1-((4-(1H-indazol-5-yl)-1-methyl-1H-pyrrolo[2,3-b]pyridin-2-yl)methyl)piperidin-4-yl)benzoyl)piperidin-4-yl)methyl)piperazin-1-yl)methyl)-3-cyclopropyl-2-oxo-2,3-dihydro-1H-benzo[d]imidazol-1-yl)piperidine-2,6-dione] | 1.4 nM | 
10 | COCCn1c(=O)n(C2CCC(=O)NC2=O)c2ccc(CN3CCN(CC4CCN(C(=O)c5ccc(C6CCN(Cc7cc8c(-c9ccc(N)nc9)ccnc8n7C)CC6)cc5)CC4)CC3)cc21 (stereo not shown) [Example 3e7, 3-(5-((4-((1-(4-(1-((4-(6-aminopyridin-3-yl)-1-methyl-1H-pyrrolo[2,3-b]pyridin-2-yl)methyl)piperidin-4-yl)benzoyl)piperidin-4-yl)methyl)piperazin-1-yl)methyl)-3-(2-methoxyethyl)-2-oxo-2,3-dihydro-1H-benzo[d]imidazol-1-yl)piperidine-2,6-dione] | 9 nM | 
11 | C[C@@H]1CN(Cc2ccc3c(c2)n(C)c(=O)n3C2CCC(=O)NC2=O)CCN1CC1CCN(C(=O)c2ccc(C3CCN(Cc4cc5c(-c6ccc(N)nc6)ccnc5n4C)CC3)cc2)CC1 (stereo partly drawn) [Example 3e8, 3-(5-(((R)-4-((1-(4-(1-((4-(6-aminopyridin-3-yl)-1-methyl-1H-pyrrolo[2,3-b]pyridin-2-yl)methyl)piperidin-4-yl)benzoyl)piperidin-4-yl)methyl)-3-methylpiperazin-1-yl)methyl)-3-methyl-2-oxo-2,3-dihydro-1H-benzo[d]imidazol-1-yl)piperidine-2,6-dione] |  | Emax: 50 to 60%
12 | C[C@@H](c1cc2c(-c3ccc(N)nc3)ccnc2n1C)N1CCC(c2ccc(C(=O)N3CCC(CN4CCN(Cc5ccc6c(c5)n(C5CC5)c(=O)n6C5CCC(=O)NC5=O)CC4)CC3)cc2)CC1 (stereo partly drawn) [Example 3e10, 3-(5-((4-((1-(4-(1-((S)-1-(4-(6-aminopyridin-3-yl)-1-methyl-1H-pyrrolo[2,3-b]pyridin-2-yl)ethyl)piperidin-4-yl)benzoyl)piperidin-4-yl)methyl)piperazin-1-yl)methyl)-3-cyclopropyl-2-oxo-2,3-dihydro-1H-benzo[d]imidazol-1-yl)piperidine-2,6-dione] |  | Emax: < 20%
13 | C[C@@H](c1cc2c(-c3ccc4[nH]ncc4c3)ccnc2n1C)N1CCC(c2ccc(C(=O)N3CCC(CN4CCN(Cc5ccc6c(c5)n(C5CC5)c(=O)n6C5CCC(=O)NC5=O)CC4)CC3)cc2)CC1 (stereo partly drawn) [Example 3e11, 3-(5-((4-((1-(4-(1-((S)-1-(4-(1H-indazol-5-yl)-1-methyl-1H-pyrrolo[2,3-b]pyridin-2-yl)ethyl)piperidin-4-yl)benzoyl)piperidin-4-yl)methyl)piperazin-1-yl)methyl)-3-cyclo-propyl-2-oxo-2,3-dihydro-1H-benzo[d]imidazol-1-yl)piperidine-2,6-dione] | 0.9 nM | 
14 | Cc1cc(C(=O)N2CCC(CN3CCN(Cc4ccc5c(c4)n(C)c(=O)n5C4CCC(=O)NC4=O)CC3)CC2)cc(C)c1C1=CCN(Cc2cc3c(-c4ccc(N)nc4)ccnc3n2C)CC1 (stereo not shown) [Example 3e12, 3-(5-((4-((1-(4-(1-((4-(6-aminopyridin-3-yl)-1-methyl-1H-pyrrolo[2,3-b]pyridin-2-yl)methyl)-1,2,3,6-tetrahydropyridin-4-yl)-3,5-dimethylbenzoyl)piperidin-4-yl)methyl)piperazin-1-yl)methyl)-3-methyl-2-oxo-2,3-dihydro-1H-benzo[d]imidazol-1-yl)piperidine-2,6-dione] | 0.9 nM | 
15 | Cn1c(CN2CCC(c3ccc(C(=O)N4CCC(CN5CCN(Cc6ccc7c(c6F)n(C)c(=O)n7C6CCC(=O)NC6=O)CC5)CC4)cc3)CC2)cc2c(-c3ccc(N)nc3)ccnc21 (stereo not shown) [Example 3e14, 3-(5-((4-((1-(4-(1-((4-(6-aminopyridin-3-yl)-1-methyl-1H-pyrrolo[2,3-b]pyridin-2-yl)methyl)piperidin-4-yl)benzoyl)piperidin-4-yl)methyl)piperazin-1-yl)methyl)-4-fluoro-3-methyl-2-oxo-2,3-dihydro-1H-benzo[d]imidazol-1-yl)piperidine-2,6-dione] | 1.5 nM | 
16 | CC(C)[C@H]1CN(Cc2ccc3c(c2)n(C)c(=O)n3C2CCC(=O)NC2=O)CCN1CC1CCN(C(=O)c2ccc(C3CCN([C@@H](C)c4cc5c(-c6ccc(N)nc6)ccnc5n4C)CC3)cc2)CC1 (stereo partly drawn) [Example 3e21, 3-(5-(((S)-4-((1-(4-(1-((S)-1-(4-(6-aminopyridin-3-yl)-1-methyl-1H-pyrrolo[2,3-b]pyridin-2-yl)ethyl)piperidin-4-yl)benzoyl)piperidin-4-yl)methyl)-3-iso-propylpiperazin-1-yl)methyl)-3-methyl-2-oxo-2,3-dihydro-1H-benzo[d]imidazol-1-yl)piperidine-2,6-dione] | 2.8 nM | 
